Source: patent US7045547B2, “Acyl-CoA dehydrogenase allenic inhibitors” (University of Delaware, priority 2002, dated 2006)
Like-named read-outs stand apart in the source and are kept apart here.

Columns and labels:
[1] = target: T1, medium chain dehydrogenase (Sus scrofa, UniProt P41367); assay: Competition studies with the substrate octanoyl-CoA; format: biochemical, pig; set-up: medium-chain acyl-CoA dehydrogenase (MC-CoA DH) as purified from pig kidney; from tissue; host or cells: pig kidney; details: 30 μM octanoyl-CoA, 3 nM dehydrogenase
T1 sequence (P41367 26-421): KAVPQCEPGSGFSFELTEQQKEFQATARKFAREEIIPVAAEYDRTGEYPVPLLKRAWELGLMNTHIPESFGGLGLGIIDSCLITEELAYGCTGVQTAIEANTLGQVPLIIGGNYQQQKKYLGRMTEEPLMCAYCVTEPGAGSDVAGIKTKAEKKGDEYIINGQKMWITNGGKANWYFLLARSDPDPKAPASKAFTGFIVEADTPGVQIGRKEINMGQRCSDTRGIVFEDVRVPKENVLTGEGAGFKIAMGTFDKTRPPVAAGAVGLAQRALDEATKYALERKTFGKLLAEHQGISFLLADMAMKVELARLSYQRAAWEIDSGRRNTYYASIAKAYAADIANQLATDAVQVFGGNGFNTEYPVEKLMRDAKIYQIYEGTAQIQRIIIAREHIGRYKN
Method: (§1) General Information: Medium chain acyl-CoA dehydrogenase was purified from pig kidney as described previously (33). Porcine liver esterase (EC 3.1.1.1), CoASH (lithium salt), D-pantethine, and 5,5′-dithio-bis(2-nitrobenzoic acid) were obtained from Sigma. E,E-2,4-octadienal and E,E-2,4-dodecadienal were from Alfa and K & K Laboratories respectively. […] Thorpe et al. in Biochemistry 1979, 18, 331–337. Unless otherwise stated, buffers were 50 mM potassium phosphate, pH 7.6, containing 0.3 mM EDTA, and experiments were conducted at 25° C. Assays of the medium chain dehydrogenase were as described previously, see C. Thorpe et al. in Anal. Biochem. 1990, 186, 280–284. Static and rapid-reaction spectrophotometry were performed as reported in C. Thorpe et al, in Biochemistry 1998, 37, 10469–10477.
In competition studies with the substrate octanoyl-CoA, at a concentration of 30 μM, both the CoA and pantetheine analogs of the compounds of the invention are shown to be relatively strong reversible inhibitors of medium chain dehydrogenase. The assay studies included a dehydrogenase concentration of 3 nM. Compared to a control without inhibitor, 4.4 nM of the 3,4-decadienoyl-CoA analog decreased the rate to 50% within 1 minute.

[2] = target: T2, medium-chain acyl-CoA dehydrogenase (MC-CoA DH) (Sus scrofa, UniProt P41367); assay: Kinetic stability of enzyme adducts (return of oxidized flavin absorbance at 446 nm); format: biochemical, pig; details: for rate constant of enzyme adduct decomposition: 1.6 equivalents racemic 3,4-dienoyl-CoA (0.8 equivalent R-isomer), 9.5 μM enzyme, pH 7.6; for enzyme adduct stability relative to the corresponding full length CoA-thioester: times more stable than the CoA adduct
T2 construct: medium-chain acyl-CoA dehydrogenase (MC-CoA DH) as purified from pig kidney; from tissue; host or cells: pig kidney
T2 sequence (P41367 26-421): T1 sequence (P41367 26-421)
Description: The reduced flavin adduct decomposes to the 2,4-conjugated diene with the return of the oxidized flavin absorbance spectrum. This isomerization provides a measure of the kinetic stability of each of the enzyme adducts formed. The dehydrogenase enzyme used in the stability testing of the inventive compounds was medium-chain acyl-CoA dehydrogenase (MC-CoA DH) as purified from pig kidney.
as §1
A solution of acyl-CoA dehydrogenase (9.5 μM in 50 mM phosphate buffer, pH 7.6, 25° C.) is mixed with 1.6 equivalents of racemic 3,4-dienoyl-CoA derivatives (0.8 equivalent of R-isomer) containing 5, 6, 7, 8, 10, 12 and 15 carbon acyl chains. The return of oxidized flavin absorbance was monitored at 446 nm. A sub-stoichiometric amount (1.6 equivalents racemate: corresponding to 0.8 equivalent of the R-isomer) is used to avoid the lag phases encountered in the presence of excess inhibitor. The return of oxidized flavin absorbance is strongly chain length dependent.
Enzyme adduct stabilities with the medium-chain acyl-CoA dehydrogenase of R-(−)-3,4-decadienoyl-CoA, R-(−)-3,4-decadienoyl-pantetheine, and R-(−)-3,4-decadienoyl N-acetylcysteamine were compared. The dehydrogenase was incubated with 0.8 equivalents of the CoA, pantetheine and N-acetylcysteamine thioesters of R-(−)-3,4-decadienoic acid until maximal bleaching of the flavin chromophore was observed. The reappearance of the oxidized flavin chromophore was then followed at 25° C.

[3] = target: T1, medium chain dehydrogenase; details: absence of displacing ligand; cited from earlier work
[4] = target: T3, medium chain acyl-CoA dehydrogenase (Sus scrofa, UniProt P41367); assay: Spectral titration / inhibition of the dehydrogenase by allenic thioesters; format: biochemical, pig
T3 construct: medium-chain acyl-CoA dehydrogenase (MC-CoA DH) as purified from pig kidney; from tissue; host or cells: pig kidney
T3 sequence (P41367 26-421): T1 sequence (P41367 26-421)
Description: See, Example 1. The (S)-enantiomer is rapidly isomerized to the trans-2,4-conjugated diene. […] These structural studies show a surprising, but relatively large, variation in the interaction between structurally similar inhibitors.
as §1
The spectral changes were completed rapidly before measurement could be made. Intermediate spectra are omitted for clarity. […] In FIG. 1C, the enzyme (5.06 μM in 50 mM phosphate buffer, pH 7.6, 25° C.; curve 1) was titrated with 2.53, 5.06, 36.4, 66.8, 109.3 μM of S-(+)-decadienoyl-CoA (curves 2–6, respectively). Intermediate spectra are omitted for clarity. The absorbance values at 446 nm are shown in the inset.

[5] = target: T3, medium chain acyl-CoA dehydrogenase; assay: Enzyme adduct formation: bleaching of the flavin chromophore at 446 nm (stopped-flow / conventional spectrophotometry); format: biochemical, pig; details: for limiting rate of flavin bleaching / rate constant of bleaching of the flavin chromophore at 446 nm: 2° C.; for rate constant of bleaching of the flavin chromophore at 446 nm: at 50 μM; for long wavelength band: compared with the CoA compound, pantetheine at 50 μM
Method: as §1
(§2) Bleaching of the flavin chromophore, followed at 446 nm, is relatively rapid for the pantetheine compound, but slow enough for a conventional spectrophotometer with the N-acetylcysteamine compound. At 50 μM, the rate constants are 30.9 s^−1, 7.5 s^−1, and 0.035 s^−1 for the CoA, pantetheine, N-acetylcysteamine compounds, respectively at 2° C. Limiting rates of 33 s^−1 and 55 s^−1 are obtained for CoA and pantetheine thioesters, respectively.
Dehydrogenase and R-(−)3,4-decadienoyl-CoA are mixed in the stopped-flow spectrophotometer at 2° C. to give final concentrations of 11 μM and 60 μM. The absorbance changes at 446 and 800 nm are shown in the inset of FIG. 2. As is observed with a number of diverse thioester substrates, such as butyryl-, octanoyl- and dihydrocinnamoyl-CoA, bleaching of the flavin at 446 nm is biphasic.
The absorbance changes were recorded in a 2 cm path-length cell after mixing dehydrogenase and R-(−)-thioester in the stopped flow spectrophotometer to give final concentrations of 5.5 and 30 μM respectively in 50 mM phosphate buffer, pH 7.6 at 2° C. […] Absorbance traces at a range of wavelengths were used to construct the spectrum of the intermediate species maximal at about 20 msec.

[6] = Solubility observation during rate measurements; format: physicochemical
Method: as §2

Question: Which IC50 ([1]; read-out: concentration required to decrease the rate to 50% of control) does the source give for “3,4-decadienoyl pantetheine [3,4-decadienoyl-pantetheine]” here?
Answer: The IC50 was 500 nM.

Question: For `CCCCCCCC=C=CCC(=O)SCCNC(=O)CCNC(=O)[C@H](O)C(C)(C)COP(=O)(O)OP(=O)(O)OC[C@H]1O[C@@H](n2cnc3c(N)ncnc32)[C@H](O)[C@@H]1OP(=O)(O)O` (racemic) [3,4-dodecadienoyl-CoA], which “rate constant of enzyme adduct decomposition” value ([2]; 25° C.) is on record?
Answer: The value was 0.18 h⁻¹.

Question: With `CCC=C=CCC(=O)SCCNC(=O)CCNC(=O)[C@H](O)C(C)(C)COP(=O)(O)OP(=O)(O)OC[C@H]1O[C@@H](n2cnc3c(N)ncnc32)[C@H](O)[C@@H]1OP(=O)(O)O` (racemic) [3,4-heptadienoyl-CoA] as the molecule, how does the “rate constant of enzyme adduct decomposition” value ([2]; 25° C.) read?
Answer: The value was 1.9 h⁻¹.

Question: With `CC=C=CCC(=O)SCCNC(=O)CCNC(=O)[C@H](O)C(C)(C)COP(=O)(O)OP(=O)(O)OC[C@H]1O[C@@H](n2cnc3c(N)ncnc32)[C@H](O)[C@@H]1OP(=O)(O)O` (racemic) [3,4-hexadienoyl-CoA] as the molecule, how does the “rate constant of enzyme adduct decomposition” value ([2]; 25° C.) read?
Answer: Its value is 8.7 h⁻¹.

Question: With `CCCC=C=CCC(=O)SCCNC(=O)CCNC(=O)[C@H](O)C(C)(C)COP(=O)(O)OP(=O)(O)OC[C@H]1O[C@@H](n2cnc3c(N)ncnc32)[C@H](O)[C@@H]1OP(=O)(O)O` (racemic) [3,4-octadienoyl-CoA] as the molecule, how does the “rate constant of enzyme adduct decomposition” value ([2]; 25° C.) read?
Answer: The value was 0.08 h⁻¹.

Question: With `CCCCCCCCCCC=C=CCC(=O)SCCNC(=O)CCNC(=O)[C@H](O)C(C)(C)COP(=O)(O)OP(=O)(O)OC[C@H]1O[C@@H](n2cnc3c(N)ncnc32)[C@H](O)[C@@H]1OP(=O)(O)O` (racemic) [3,4-pentadecanedienoyl-CoA] as the molecule, how does the “rate constant of enzyme adduct decomposition” value ([2]; 25° C.) read?
Answer: The value was 0.27 h⁻¹.

Question: Which “rate constant of enzyme adduct decomposition” value ([2]; 25° C.) does the source give for `C=C=CCC(=O)SCCNC(=O)CCNC(=O)[C@H](O)C(C)(C)COP(=O)(O)OP(=O)(O)OC[C@H]1O[C@@H](n2cnc3c(N)ncnc32)[C@H](O)[C@@H]1OP(=O)(O)O` [3,4-pentadienoyl-CoA, reference compound] here?
Answer: Its value is 1.6 h⁻¹.

Question: And the “half-life of reduced flavin adduct” value [3]?
Answer: Its value is “about 75 min”.

Question: For `CCCC=C=CCC(=O)SCCNC(=O)CCNC(=O)[C@H](O)C(C)(C)COP(=O)(O)OP(=O)(O)OC[C@H]1O[C@@H](n2cnc3c(N)ncnc32)[C@H](O)[C@@H]1OP(=O)(O)O` [(R)-3,4-octadienoyl-CoA], which “inhibition of the dehydrogenase” value [4] is on record?
Answer: Its value is “potent inhibitor”.

Question: With `CCCC=C=CCC(=O)SCCNC(=O)CCNC(=O)[C@H](O)C(C)(C)COP(=O)(O)OP(=O)(O)OC[C@H]1O[C@@H](n2cnc3c(N)ncnc32)[C@H](O)[C@@H]1OP(=O)(O)O` [(S)-3,4-octadienoyl-CoA] as the molecule, how does the “inhibition of the dehydrogenase” value [4] read?
Answer: Its value is “very little, if any, inhibition”.

Question: What does the source list for `CCCCCC=C=CCC(=O)SCCNC(=O)CCNC(=O)[C@H](O)C(C)(C)COP(=O)(O)OP(=O)(O)OC[C@H]1O[C@@H](n2cnc3c(N)ncnc32)[C@H](O)[C@@H]1OP(=O)(O)O` [R-(−)-3,4-decadienoyl-CoA]?
Answer: stoichiometry of bleaching at 446 nm ([4]; 9.6 μM enzyme, pH 7.6, 25° C., FIG. 1B inset): 0.95 equivalents; limiting rate of flavin bleaching [5]: 33 s⁻¹; rate constant of bleaching of the flavin chromophore at 446 nm [5]: 30.9 s⁻¹

Question: Which “regain of flavin absorbance (adduct stability in words)” value ([2]; 0.8 equivalents, 25° C.) does the source give for `CCCCCC=C=CCC(=O)SCCNC(C)=O` [R-(−)-3,4-decadienoyl-N-acetylcysteamine] here?
Answer: The value was “no appreciable regain of the flavin absorbance after two days”.

Question: And the “enzyme adduct stability relative to the corresponding full length CoA-thioester” value [2]?
Answer: The value was “greater than 100 times”.

Question: And the “rate constant of bleaching of the flavin chromophore at 446 nm” value [5]?
Answer: Its value is 0.035 s⁻¹.

Question: What about the long wavelength band [5] of the same molecule?
Answer: Its long wavelength band is “no long-wavelength band was observed”.

Question: What about the “solubility” value [6] of the same molecule?
Answer: The value was “low solubility”.

Question: What does the source list for `CCCCCC=C=CCC(=O)SCCNC(=O)CCNC(=O)[C@H](O)C(C)(C)CO` [R-(−)-3,4-decadienoyl-pantetheine]?
Answer: enzyme adduct stability relative to the corresponding full length CoA-thioester [2]: ~9 times; enzyme adduct stability relative to the corresponding full length CoA-thioester ([2]; listed as (R)-3,4-decadienoyl-pantetheine): 10 times; limiting rate of flavin bleaching [5]: 55 s⁻¹; rate constant of bleaching of the flavin chromophore at 446 nm [5]: 7.5 s⁻¹; long wavelength band [5]: one quarter as intense

Question: With `CCCCCC=C=CCC(=O)SCCNC(=O)CCNC(=O)[C@H](O)C(C)(C)COP(=O)(O)OP(=O)(O)OC[C@H]1O[C@@H](n2cnc3c(N)ncnc32)[C@H](O)[C@@H]1OP(=O)(O)O` [S-(+)-3,4-decadienoyl-CoA] as the molecule, how does the “inhibition of the dehydrogenase” value [4] read?
Answer: Its value is “relatively weak inhibitor”.

Question: What about the “flavin adduct formation” value ([4]; spectral titration) of the same molecule?
Answer: Its value is “does not form a detectable flavin adduct”.

Question: With decadienoyl-CoA as the molecule, how does the IC50 ([1]; within 1 minute, read-out: concentration that decreased the rate to 50% of control) read?
Answer: Its IC50 is 4.4 nM.

Question: And the “rate constant of enzyme adduct decomposition” value ([2]; 25° C.)?
Answer: The value was 0.12 h⁻¹.
